The values that follow are results of earlier work, collected in US8273880B2, “Pyrazole compounds with inhibitory activity against ROS kinase” (Korea Institute of Science and Technology, priority 2009, dated 2012).

One may read the IC50 as the concentration at which inhibition is half-maximal.

This data set deals with ROS kinase (Homo sapiens, UniProt P08922). Also on record: literature Reaction Biology Corporation. The following applies: Data from Reaction Biology corporation (website); read-out: Inhibitory Activity against ROS (IC50); cited from earlier work.
Sequence of ROS kinase (P08922 28-2347): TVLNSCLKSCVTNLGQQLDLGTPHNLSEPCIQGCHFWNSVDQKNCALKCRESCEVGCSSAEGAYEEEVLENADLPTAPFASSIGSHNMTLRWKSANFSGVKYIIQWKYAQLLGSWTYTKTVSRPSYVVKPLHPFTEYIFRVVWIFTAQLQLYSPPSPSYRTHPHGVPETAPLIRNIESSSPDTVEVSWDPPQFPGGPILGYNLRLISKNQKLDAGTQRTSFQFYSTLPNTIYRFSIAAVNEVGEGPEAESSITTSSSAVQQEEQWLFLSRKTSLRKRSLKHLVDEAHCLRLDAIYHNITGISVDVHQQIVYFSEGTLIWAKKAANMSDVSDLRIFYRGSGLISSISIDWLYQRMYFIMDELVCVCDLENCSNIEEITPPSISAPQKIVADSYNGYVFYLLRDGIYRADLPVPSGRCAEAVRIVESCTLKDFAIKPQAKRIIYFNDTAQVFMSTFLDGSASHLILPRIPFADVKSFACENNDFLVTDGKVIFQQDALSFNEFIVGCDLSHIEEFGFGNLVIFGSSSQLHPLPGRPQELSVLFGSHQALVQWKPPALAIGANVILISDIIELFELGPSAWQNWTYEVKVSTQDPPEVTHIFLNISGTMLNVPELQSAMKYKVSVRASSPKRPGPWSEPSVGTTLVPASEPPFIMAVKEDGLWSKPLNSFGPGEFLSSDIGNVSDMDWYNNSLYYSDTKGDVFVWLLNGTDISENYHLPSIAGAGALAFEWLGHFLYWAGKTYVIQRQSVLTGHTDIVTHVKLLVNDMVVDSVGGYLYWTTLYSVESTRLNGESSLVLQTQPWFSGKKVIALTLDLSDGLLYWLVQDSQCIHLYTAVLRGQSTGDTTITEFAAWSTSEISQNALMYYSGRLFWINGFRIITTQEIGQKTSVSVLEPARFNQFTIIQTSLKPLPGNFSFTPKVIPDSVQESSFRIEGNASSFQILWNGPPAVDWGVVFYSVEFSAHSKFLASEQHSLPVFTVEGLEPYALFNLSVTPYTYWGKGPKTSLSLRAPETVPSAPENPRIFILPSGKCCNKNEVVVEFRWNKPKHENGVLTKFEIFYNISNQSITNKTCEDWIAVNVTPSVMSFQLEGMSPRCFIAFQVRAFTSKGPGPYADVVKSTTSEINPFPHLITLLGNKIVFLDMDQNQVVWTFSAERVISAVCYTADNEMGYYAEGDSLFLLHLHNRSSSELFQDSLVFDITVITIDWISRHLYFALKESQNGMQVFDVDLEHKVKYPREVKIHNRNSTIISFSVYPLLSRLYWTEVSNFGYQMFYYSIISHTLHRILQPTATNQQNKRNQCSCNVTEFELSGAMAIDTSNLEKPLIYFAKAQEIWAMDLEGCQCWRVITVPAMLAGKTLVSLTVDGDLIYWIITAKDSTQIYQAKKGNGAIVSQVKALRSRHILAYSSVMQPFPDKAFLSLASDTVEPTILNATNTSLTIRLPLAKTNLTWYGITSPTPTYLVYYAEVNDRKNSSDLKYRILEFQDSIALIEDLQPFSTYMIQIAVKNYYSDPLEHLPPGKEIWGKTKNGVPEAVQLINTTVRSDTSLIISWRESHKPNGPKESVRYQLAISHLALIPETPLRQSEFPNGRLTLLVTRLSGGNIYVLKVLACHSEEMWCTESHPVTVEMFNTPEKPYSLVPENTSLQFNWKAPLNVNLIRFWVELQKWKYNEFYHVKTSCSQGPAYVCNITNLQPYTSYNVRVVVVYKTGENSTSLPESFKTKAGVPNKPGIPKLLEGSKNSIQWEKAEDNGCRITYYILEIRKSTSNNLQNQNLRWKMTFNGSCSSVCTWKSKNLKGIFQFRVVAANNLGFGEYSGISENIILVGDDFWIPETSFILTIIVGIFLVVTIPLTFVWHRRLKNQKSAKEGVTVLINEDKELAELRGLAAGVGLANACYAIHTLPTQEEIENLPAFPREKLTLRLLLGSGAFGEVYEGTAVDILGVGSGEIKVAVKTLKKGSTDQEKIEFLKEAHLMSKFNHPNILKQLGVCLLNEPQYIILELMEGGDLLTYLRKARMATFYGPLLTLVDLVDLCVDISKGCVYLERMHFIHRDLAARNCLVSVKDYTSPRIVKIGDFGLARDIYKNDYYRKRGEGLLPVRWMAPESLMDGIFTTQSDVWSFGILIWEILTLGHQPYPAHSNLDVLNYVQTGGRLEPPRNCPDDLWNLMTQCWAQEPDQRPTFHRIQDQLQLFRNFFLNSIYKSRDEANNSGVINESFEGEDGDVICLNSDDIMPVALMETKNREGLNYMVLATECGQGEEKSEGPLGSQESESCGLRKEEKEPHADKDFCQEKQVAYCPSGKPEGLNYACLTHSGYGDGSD

For `COc1cc2ncnc(Nc3cccc(Cl)c3)c2cc1OC` [AG1478], the 50% inhibitory concentration (IC50) was 13.6 µM.
